Reference: ChEMBL document CHEMBL3885861, “Open TG-GATES”

Species: Rattus norvegicus
Experiment: Open TG-GATES - Regimen: Single
Type: toxicity, organism-based, Sprague-Dawley
Set-up: regimen Single, gender Male, age 6 weeks
Details: in vivo, po, 15 mg/kg, route gavage, dose level Middle; for APTT / Bas / Eos / Fbg / Hb / Ht / Lym / MCH / MCHC / MCV / Mono / Neu / PT / Plat / RBC / Ret / WBC: tissue Blood; for LIVER: tissue Liver; for A/G / ALP / ALT / AST / BUN / CRE / Ca / Cl / DBIL / GLC / IP / K / LDH / Na / PL / RALB / TBIL / TC / TG / TP / gamma-GTP: tissue Plasma

In the case of `C=C(C)[C@H]1Cc2c(ccc3c2O[C@@H]2COc4cc(OC)c(OC)cc4[C@@H]2C3=O)O1` [ROTENONE], the TERMINAL_BW (3 h) is reported as 196.9 g, the APTT (3 h) is reported as 16.9 s and the Bas (3 h) is reported as 0%. For the same compound, the Eos (3 h) was 0.8%, the Fbg (3 h) was 214 mg/dL and the Hb (3 h) was 13.1 g/dL. The Ht (3 h) was 40.1%, the Lym (3 h) was 63.8% and the MCH (3 h) was 20.7 pg. For the same compound, the MCHC (3 h) was 32.6%, the MCV (3 h) was 63.4 fL and the Mono (3 h) was 13.6%. It also gave a Neu (3 h) of 22%, a PT (3 h) of 12.4 s and a Plat (3 h) of 122.6 x10_4/uL. It also gave an RBC (3 h) of 634 x10_4/ul, a Ret (3 h) of 8.9% and a WBC (3 h) of 89.2 x10_2/uL. For the same compound, the LIVER (3 h) was 8.7 g, the A/G (3 h) was 2.4 and the ALP (3 h) was 1502.2 IU/L. For the same compound, the ALT (3 h) was 37.8 IU/L, the AST (3 h) was 71.4 IU/L and the BUN (3 h) was 14.2 mg/dL. It also gave a CRE (3 h) of 0.4 mg/dL, a Ca (3 h) of 10.9 mg/dL and a Cl (3 h) of 104.2 meq/L. The DBIL (3 h) was 0.01 mg/dL, the GLC (3 h) was 191.6 mg/dL and the IP (3 h) was 8.8 mg/dL. The K (3 h) was 4 meq/L, the LDH (3 h) was 106.6 IU/L and the Na (3 h) was 141 meq/L. For the same compound, the PL (3 h) was 126.8 mg/dL, the RALB (3 h) was 3.9 g/dL and the TBIL (3 h) was 0.038 mg/dL. It also gave a TC (3 h) of 82 mg/dL, a TG (3 h) of 37.4 mg/dL and a TP (3 h) of 5.5 g/dL. It also gave a gamma-GTP (3 h) of 0.8 IU/L, a TERMINAL_BW (6 h) of 198.2 g and an APTT (6 h) of 16.4 s. It also gave a Bas (6 h) of 0%, an Eos (6 h) of 0.8% and a Fbg (6 h) of 209.6 mg/dL. The Hb (6 h) was 13.2 g/dL, the Ht (6 h) was 40.1% and the Lym (6 h) was 75.8%. It also gave an MCH (6 h) of 21 pg, an MCHC (6 h) of 32.9% and an MCV (6 h) of 63.9 fL. For the same compound, the Mono (6 h) was 5.4%, the Neu (6 h) was 18.2% and the PT (6 h) was 12.4 s. For the same compound, the Plat (6 h) was 127.4 x10_4/uL, the RBC (6 h) was 628.4 x10_4/ul and the Ret (6 h) was 8.2%. It also gave a WBC (6 h) of 100.4 x10_2/uL, an LIVER (6 h) of 8.7 g and an A/G (6 h) of 2.3. For the same compound, the ALP (6 h) was 1188.8 IU/L, the ALT (6 h) was 33.6 IU/L and the AST (6 h) was 68 IU/L. For the same compound, the BUN (6 h) was 11.8 mg/dL, the CRE (6 h) was 0.4 mg/dL and the Ca (6 h) was 11 mg/dL. For the same compound, the Cl (6 h) was 103.8 meq/L, the DBIL (6 h) was 0.01 mg/dL and the GLC (6 h) was 194 mg/dL. It also gave an IP (6 h) of 9.7 mg/dL, a K (6 h) of 4 meq/L and an LDH (6 h) of 84.2 IU/L. For the same compound, the Na (6 h) was 140.6 meq/L, the PL (6 h) was 139.2 mg/dL and the RALB (6 h) was 3.7 g/dL. The TBIL (6 h) was 0.044 mg/dL, the TC (6 h) was 79.8 mg/dL and the TG (6 h) was 74.6 mg/dL. For the same compound, the TP (6 h) was 5.4 g/dL, the gamma-GTP (6 h) was 0.4 IU/L and the TERMINAL_BW (9 h) was 198.7 g. It also gave an APTT (9 h) of 16.4 s, a Bas (9 h) of 0% and an Eos (9 h) of 0.2%. The Fbg (9 h) was 217 mg/dL, the Hb (9 h) was 12.7 g/dL and the Ht (9 h) was 38.7%. The Lym (9 h) was 79.2%, the MCH (9 h) was 21 pg and the MCHC (9 h) was 32.9%. It also gave an MCV (9 h) of 63.7 fL, a Mono (9 h) of 6.8% and a Neu (9 h) of 13.6%. For the same compound, the PT (9 h) was 12.7 s, the Plat (9 h) was 133.8 x10_4/uL and the RBC (9 h) was 607.8 x10_4/ul. For the same compound, the Ret (9 h) was 8.8%, the WBC (9 h) was 91.4 x10_2/uL and the LIVER (9 h) was 8.3 g. The A/G (9 h) was 2.4, the ALP (9 h) was 1265 IU/L and the ALT (9 h) was 29.8 IU/L. The AST (9 h) was 65.6 IU/L, the BUN (9 h) was 10.4 mg/dL and the CRE (9 h) was 0.4 mg/dL. It also gave a Ca (9 h) of 11.4 mg/dL, a Cl (9 h) of 104.2 meq/L and a DBIL (9 h) of 0.01 mg/dL. It also gave a GLC (9 h) of 186 mg/dL, an IP (9 h) of 10 mg/dL and a K (9 h) of 4.1 meq/L. For the same compound, the LDH (9 h) was 103.8 IU/L, the Na (9 h) was 139.8 meq/L and the PL (9 h) was 132.2 mg/dL. It also gave an RALB (9 h) of 3.7 g/dL, a TBIL (9 h) of 0.044 mg/dL and a TC (9 h) of 79.2 mg/dL. It also gave a TG (9 h) of 40 mg/dL, a TP (9 h) of 5.2 g/dL and a gamma-GTP (9 h) of 1 IU/L. The TERMINAL_BW (24 h) was 213.8 g, the APTT (24 h) was 15.5 s and the Bas (24 h) was 0%. The Eos (24 h) was 0.8%, the Fbg (24 h) was 216 mg/dL and the Hb (24 h) was 12.8 g/dL. The Ht (24 h) was 38.8%, the Lym (24 h) was 78.6% and the MCH (24 h) was 21.5 pg. It also gave an MCHC (24 h) of 32.9%, an MCV (24 h) of 65.3 fL and a Mono (24 h) of 5.6%. For the same compound, the Neu (24 h) was 15%, the PT (24 h) was 11.8 s and the Plat (24 h) was 113 x10_4/uL. It also gave an RBC (24 h) of 595 x10_4/ul, a Ret (24 h) of 8.1% and a WBC (24 h) of 100 x10_2/uL. The LIVER (24 h) was 11 g, the A/G (24 h) was 2.6 and the ALP (24 h) was 1529.4 IU/L. It also gave an ALT (24 h) of 36 IU/L, an AST (24 h) of 67 IU/L and a BUN (24 h) of 17.2 mg/dL. For the same compound, the CRE (24 h) was 0.4 mg/dL, the Ca (24 h) was 11.6 mg/dL and the Cl (24 h) was 104.2 meq/L. The DBIL (24 h) was 0.012 mg/dL, the GLC (24 h) was 187 mg/dL and the IP (24 h) was 7.4 mg/dL. For the same compound, the K (24 h) was 4.4 meq/L, the LDH (24 h) was 112.8 IU/L and the Na (24 h) was 140.4 meq/L. The PL (24 h) was 168.4 mg/dL, the RALB (24 h) was 4 g/dL and the TBIL (24 h) was 0.032 mg/dL. It also gave a TC (24 h) of 88.8 mg/dL, a TG (24 h) of 152 mg/dL and a TP (24 h) of 5.6 g/dL. It also gave a gamma-GTP (24 h) of 0.4 IU/L.
